Data set [1] relates to human cytomegalovirus (HCMV). In words: Suppression of HCMV virus production in infected MRC-5 cells (plaque technique). The format is cell-based. The settings on record: for EC50: Human betaherpesvirus 5, MRC5, HCMV proliferation in MRC-5 cells, read-out: EC50 (50% effective concentration); for SI (selection index): IC50/EC50.
The nature of data set [2]: Cytotoxicity (IC50) of components separated from Kumazasa extract. Conditions: human, MRC-5 human fetal lung fibroblast cells.
The test system of data set [3] is influenza type A virus (A/Hiroshima/52/2005, H3N2). In words: Plaque technique in MDCK cells, influenza type A virus. Type of data set: cell-based. The settings on record: tricin concentration of 0.3 μg/ml.
Data set [4] has as its system influenza type B virus (B/Malaysia/2506/2004). Description: Plaque technique in MDCK cells, influenza type B virus. The format is cell-based. Conditions: tricin concentration of 0.3 μg/ml.
The next data set in a line: in vitro. Conditions: human.

The values below come from US20130131121A1, “ANTI-VIRAL AGENT” (priority 2007, published 2013).

Each structure is given as a SMILES string. Values after ≈ are worked out from the molar mass of the structure shown.

For orientation: IC50 means the concentration that gives 50% inhibition. A higher IC50 goes with weaker potency in that assay. Regarding `Oc1cccnc1` [3-hydroxy pyridine, 3-hydroxypyridine], in data set [1], the EC50 is 3.4 µg/mL (≈ 35.8 µM) and the “SI (selection index)” value amounted to 77.4. The compound further had a half-maximal inhibitory concentration (IC50) in data set [2] of 263 µg/mL (≈ 2770 µM).
Consider `Nc1nc(O)c2ncn(COC(CO)CO)c2n1` [Ganciclovir, reference compound], for which the EC50 in data set [1] lay in the range of 0.3 to 0.8 µg/mL (≈ 1.18 to 3.13 µM).
Turning to `COc1cc(-c2cc(=O)c3c(O)cc(O)cc3o2)cc(OC)c1O` [Tricin, 5,7,4′-trihydroxy-3′,5′-dimethoxyflavone], in data set [1], the EC50 was 1.7 µg/mL (≈ 5.15 µM). In addition, the “SI (selection index)” value in data set [1] was found to be 1205.8. The “proliferation of the virus (virus titer)” value in data set [1] (tricin concentration of 111 μg/ml, FIG. 4) is recorded as “virtually completely inhibited”. Further, the “proliferation suppression ratio (pt/pc×100%)” value came out at 52% in data set [3] and 48% in data set [4]. In addition, in data set [2], the IC50 is 2050 µg/mL (≈ 6210 µM).
As to `COc1cc(C=O)ccc1O` [Vanillin, vanillin], in data set [1], the EC50 is 48 µg/mL (≈ 315 µM) and the “SI (selection index)” value turned out to be 4.5. For the same compound, the IC50 in data set [2] stood at 215 µg/mL (≈ 1410 µM).
For `O=C(O)/C=C/c1ccc(O)cc1` [p-coumaric acid, reference compound], in that order: 8.2 µg/mL (≈ 50 µM), 22.8 and 187 µg/mL (≈ 1140 µM).
Turning to `O=Cc1ccc(O)cc1` [p-hydroxybenzaldehyde], in data set [1], the EC50 came out at 12.8 µg/mL (≈ 105 µM) and the “SI (selection index)” value is reported as 23.8. The compound also came in with an IC50 in “in vitro” of 305 µg/mL (≈ 2500 µM).
